Each block holds one compound with its values, some of them ahead of it. Where no end group is shown, it is not given here.
Key:
[1] = target: T1, 353 form of the 11CBy receptor (Homo sapiens, UniProt Q99705); experiment: Radioligand ([125I]-MCH) competitive binding on membranes from HEK293 cells stably expressing 11CBy receptors; details: [125I]-MCH 0.22 nM, 45 min 37° C., pH7.4, pKi calculated from IC50
T1 construct: expressed in transfected cells; well washed membranes
Description: Membranes ([…] protein) were incubated with [^125I]-Melanin Concentrating Hormone (0.22 nM) (obtained from NEN) in the presence and absence of competing test compounds for 45 min at 37° C. in a buffer (pH7.4), containing 50 mM Tris and 0.2% BSA. Non-specific binding was defined using […] Melanin Concentrating Hormone (obtained from Bachem). The test compounds were added at concentrations between […] and 10 pM in 10 concentration steps. Following incubation, the reaction was stopped by filtration through GF/B filters and washed with 4×1 ml of ice-cold 50 mM Tris buffer. Microscint 20 (Packard) was added to the filters and the radioactivity measured using a Packard TopCount. Bound cpm in the presence of test compound was expressed as a fraction of the bound cpm in the absence of test compound and plotted against the concentration of compound. From this an IC50 was determined from which the pKi was calculated.

conscious CD rats = experiment: Effects of 11CBy antagonists on plasma glucagon and blood glucose levels (rat glucagon secretion model); type: in vivo
[2] = Example A4 15 mg/kg + MCH group, 5 min
[3] = Example A4 15 mg/kg + MCH group, 15 min
[4] = Example A4 15 mg/kg + MCH group, time 0

T1 sequence (Q99705 whole entry): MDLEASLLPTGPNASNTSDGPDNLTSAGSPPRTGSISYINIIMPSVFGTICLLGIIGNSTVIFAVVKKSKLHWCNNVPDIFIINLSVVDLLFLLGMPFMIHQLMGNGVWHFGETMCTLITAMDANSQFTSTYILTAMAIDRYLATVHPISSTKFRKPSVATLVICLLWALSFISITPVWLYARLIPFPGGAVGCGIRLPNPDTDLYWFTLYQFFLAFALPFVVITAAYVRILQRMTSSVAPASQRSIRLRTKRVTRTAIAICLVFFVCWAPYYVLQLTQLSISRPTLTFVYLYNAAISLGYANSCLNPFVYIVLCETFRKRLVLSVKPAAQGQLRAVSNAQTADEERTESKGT

Ki [1]: 10 to 31.6 nM
Compound: COc1cc(-n2cnc3cc(-c4ccccc4)sc3c2=O)ccc1OCCN1CCCC1 [Example F1, 3-[3-Methoxy-4-(2-pyrrolidin-1-yl-ethoxy)-phenyl]-6-phenyl-3H-thieno[3,2-d]pyrimidin-4-one]

Ki [1]: 10 to 31.6 nM
Compound: COc1cc(-n2nnc3cc(-c4ccccc4)ccc3c2=O)ccc1OCCN1CCCC1 [Example C5, 3-[3-Methoxy-4-(2-pyrrolidin-1-yl-ethoxy)-phenyl]-7-phenyl-3H-benzo[d][1,2,3]triazin-4-one]

Ki [1]: 10 to 31.6 nM
Compound: COc1cc(N2C(=O)c3ccc(Nc4ccccc4)cc3C2=O)ccc1OCCN1CCCC1 [Example A5, 2-[3-Methoxy-4-(2-pyrrolidin-1-yl-ethoxy)-phenyl]-5-phenylamino-isoindole-1,3-dione]

Compound: MCH (DFDMLRCMLGRVYRPCWQV; ends and bridges not checked; cysteine pairing not given here; UniProt P20382 147-165, looked up) [reference compound]
Blood glucose (conscious CD rats; MCH 50 ug/kg group, 5 min): 6.5 ± 0.33 (7) mmol/l
Plasma glucagon (conscious CD rats; MCH 50 ug/kg group, 5 min): 35.16 ± 2.5 (7) pg/ml
Blood glucose (conscious CD rats; MCH 50 ug/kg group, 15 min): 11.81 ± 1.27 (7) mmol/l
Plasma glucagon (conscious CD rats; MCH 50 ug/kg group, 15 min): 28.67 ± 1.61 (7) pg/ml
Blood glucose (conscious CD rats; MCH 50 ug/kg group, time 0): 5.87 ± 0.22 (7) mmol/l
Plasma glucagon (conscious CD rats; MCH 50 ug/kg group, time 0): 23.6 ± 1.2 (6) pg/ml
increase in plasma glucagon from the pre-treatment value (conscious CD rats; MCH 50 ug/kg iv alone, after 5 minutes): 48.7%
maximum rise in blood glucose concentration (conscious CD rats; MCH 50 ug/kg iv alone, after 15 min): 101%
increase in plasma glucagon from the pre-treatment value (conscious CD rats; MCH 50 ug/kg iv alone, after 15 minutes): 21%

pKi in binding to the 353 form of the 11CBy receptor [1]: 7.7
Compound: COc1cc(N2C(=O)c3ccc(Oc4ccccc4)cc3C2=O)ccc1OCCN1CCCC1.Cl [Example A4, 2-[3-Methoxy-4-(2-pyrrolidin-1-yl-ethoxy)-phenyl]-5-phenoxy-isoindole-1,3-dione hydrochloride]
Blood glucose (conscious CD rats; [2]): 6.46 ± 0.46 (7) mmol/l
Plasma glucagon (conscious CD rats; [2]): 30.85 ± 2.01 (7) pg/ml
Blood glucose (conscious CD rats; [3]): 7.71 ± 0.43 (7) mmol/l
Plasma glucagon (conscious CD rats; [3]): 22.87 ± 0.56 (5) pg/ml
Blood glucose (conscious CD rats; [4]): 5.35 ± 0.23 (7) mmol/l
Plasma glucagon (conscious CD rats; [4]): 23.45 ± 1.16 (7) pg/ml
rise in plasma glucagon (conscious CD rats; Example A4 15 mg/kg iv five minutes prior to iv MCH bolus, after 5 minutes): no rise
rise in plasma glucagon (conscious CD rats; Example A4 15 mg/kg iv five minutes prior to iv MCH bolus, after 15 min): 2.7%
blood glucose increase (conscious CD rats; Example A4 15 mg/kg iv five minutes prior to iv MCH bolus, time not given): 44%

— patent publication US7220777B2, “Lactam derivatives as antagonists for human 11cby receptors” (SmithKline Beecham P.L.C., priority 2001, dated 2007)
